Experiment [1] addresses Mu-type opioid receptor (Rattus norvegicus, UniProt P33535). In words: Displacement of [3H]DAMGO from mu opioid receptor in rat brain homogenate. The format is tissue-based. Background: Displacement assays read how much labelled ligand stays bound in the presence of the test substance.
The target of experiment [2] is Delta-type opioid receptor (Homo sapiens, UniProt P41143). In words: Displacement of [3H]DPDE from delta opioid receptor.
Experiment [3] deals with Kappa-type opioid receptor (Homo sapiens, UniProt P41145). In words: Displacement of [3H]U-69593 from kappa opioid receptor.
In experiment [4] the target is Mu-type opioid receptor (Cavia porcellus) (UniProt P97266). In words: Activity at mu opioid receptor in guinea-pig ileum assay. The format is functional, tissue-based. As to conditions: filed as antagonist.
Experiment [5] concerns the target Mu-type opioid receptor (Cavia porcellus, UniProt P97266). In words: Antagonist activity against mu opioid receptor in guinea-pig ileum assay. The format is functional, tissue-based.

Sequence of Delta-type opioid receptor (P41143 whole entry): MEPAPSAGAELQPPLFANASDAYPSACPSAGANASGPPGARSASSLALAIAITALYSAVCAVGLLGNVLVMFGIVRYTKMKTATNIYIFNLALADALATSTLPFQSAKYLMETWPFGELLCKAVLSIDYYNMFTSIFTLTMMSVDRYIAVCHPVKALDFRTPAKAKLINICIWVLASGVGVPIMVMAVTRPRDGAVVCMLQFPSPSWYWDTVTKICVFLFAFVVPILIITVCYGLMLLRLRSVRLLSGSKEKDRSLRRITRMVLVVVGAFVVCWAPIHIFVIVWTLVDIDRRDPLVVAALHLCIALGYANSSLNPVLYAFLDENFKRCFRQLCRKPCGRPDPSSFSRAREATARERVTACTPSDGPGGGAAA
Sequence of Mu-type opioid receptor (Rattus norvegicus, UniProt P33535) (P33535 whole entry): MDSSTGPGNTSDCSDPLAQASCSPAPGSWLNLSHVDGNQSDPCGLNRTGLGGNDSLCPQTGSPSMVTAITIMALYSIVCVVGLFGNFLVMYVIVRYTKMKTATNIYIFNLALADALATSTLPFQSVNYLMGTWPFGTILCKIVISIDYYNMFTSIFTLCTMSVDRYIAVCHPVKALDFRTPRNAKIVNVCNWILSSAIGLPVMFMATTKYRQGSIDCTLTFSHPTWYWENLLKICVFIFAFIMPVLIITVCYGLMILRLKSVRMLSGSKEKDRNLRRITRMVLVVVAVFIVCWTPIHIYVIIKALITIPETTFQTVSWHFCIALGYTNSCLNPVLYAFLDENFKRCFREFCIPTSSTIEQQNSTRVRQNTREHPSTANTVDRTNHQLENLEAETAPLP
Sequence of Mu-type opioid receptor (Cavia porcellus, UniProt P97266) (P97266 whole entry): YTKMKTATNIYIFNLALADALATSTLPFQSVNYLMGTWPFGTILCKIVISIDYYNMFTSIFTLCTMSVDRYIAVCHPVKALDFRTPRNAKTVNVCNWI
Sequence of Mu-type opioid receptor (Cavia porcellus) (P97266 whole entry): as above
Sequence of Kappa-type opioid receptor (P41145 whole entry): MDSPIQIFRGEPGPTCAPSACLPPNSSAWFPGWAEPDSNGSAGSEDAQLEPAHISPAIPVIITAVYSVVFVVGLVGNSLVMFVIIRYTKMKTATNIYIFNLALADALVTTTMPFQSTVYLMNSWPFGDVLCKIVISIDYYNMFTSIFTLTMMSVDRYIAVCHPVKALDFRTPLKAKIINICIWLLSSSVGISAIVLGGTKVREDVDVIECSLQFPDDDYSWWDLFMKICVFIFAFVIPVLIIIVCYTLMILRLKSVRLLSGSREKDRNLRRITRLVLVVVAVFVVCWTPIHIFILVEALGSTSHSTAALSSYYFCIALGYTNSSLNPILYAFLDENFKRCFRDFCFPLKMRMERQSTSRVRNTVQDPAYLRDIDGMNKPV

As usually defined, the IC50 is the concentration needed to halve the response being measured. Read a high IC50 as weaker potency. On to `CNC[C@@H](Cc1ccccc1)N(C)C[C@@H](Cc1ccc(O)cc1)N(C)C[C@H](Cc1ccc(O)cc1)N(C)C`, for which the IC50 at Mu-type opioid receptor [1] was found to be 0.876 µM; in experiment [2], 17 µM; in experiment [3] it was 22.4 µM. In experiment [4], the Activity entry was “Antagonist”.

`NC[C@@H]1CCCN1C[C@H](Cc1ccccc1)NC[C@H](Cc1ccc(O)cc1)NC[C@@H](N)Cc1ccc(O)cc1` gave an IC50 at Mu-type opioid receptor [5] of 0.006 µM.

The compound `N[C@@H](Cc1ccc(O)cc1)CN(Cc1ccccc1)[C@@H](Cc1ccc(O)cc1)CN(Cc1ccccc1)[C@@H](Cc1ccccc1)CN1CCC[C@H]1CNCc1ccccc1` had an IC50 against Mu-type opioid receptor [5] of 4.46 µM.

Take `CNC[C@H](Cc1ccccc1)N(C)C[C@@H](Cc1ccc(O)cc1)N(C)C[C@@H](N)Cc1ccc(O)cc1`: the values for the IC50 (at Mu-type opioid receptor [1]; in experiment [2]; in experiment [3]) were 0.339 µM, 48.2 µM and 22.5 µM, respectively. In experiment [4], the Activity result was “Antagonist”.

On to `CNC[C@@H]1CCCN1C[C@H](Cc1ccccc1)N(C)C[C@H](Cc1ccc(O)cc1)N(C)C[C@@H](N)Cc1ccc(O)cc1`, for which the midpoint of inhibition on Mu-type opioid receptor [5], the IC50, lay at 0.013 µM. In experiment [4], the Activity result was “Antagonist”.

Turning to `CNC[C@@H](Cc1ccccc1)N(C)C[C@@H](Cc1ccc(O)cc1)N(C)C[C@@H](Cc1ccc(O)cc1)N(C)C`, the half-inhibitory concentration (IC50) on Mu-type opioid receptor [1] turned out to be 0.835 µM; in experiment [2] it was 4.97 µM; in experiment [3], 8.76 µM. Besides, the Activity result in experiment [4] is “Antagonist”.

Consider `CNC[C@@H](Cc1ccccc1)N(C)C[C@H](Cc1ccc(O)cc1)N(C)C[C@@H](N)Cc1ccc(O)cc1`, for which the IC50 on Mu-type opioid receptor [1] stood at 0.037 µM; in experiment [2] it was 8.53 µM; in experiment [3], 1.45 µM. For the same compound, the Activity entry in experiment [4] is “Antagonist”.

Consider `CNC[C@H](Cc1ccc(O)cc1)N(Cc1ccccc1)C[C@H](Cc1ccc(O)cc1)N(C)C`, for which the IC50 at Mu-type opioid receptor [1] was found to be 1.28 µM; in experiment [2], 56.7 µM; in experiment [3], 10.6 µM.

`CCNC[C@@H]1CCCN1C[C@H](Cc1ccccc1)N(CC)C[C@H](Cc1ccc(O)cc1)N(CC)C[C@@H](N)Cc1ccc(O)cc1` came in with an IC50 at Mu-type opioid receptor [5] of 0.045 µM.

`CNC[C@@H]1CCCN1C[C@H](Cc1ccccc1)N(C)C[C@H](Cc1ccc(O)cc1)N(C)C[C@H](Cc1ccc(O)cc1)N(C)C` yielded an IC50 on Mu-type opioid receptor [5] of 0.008 µM.

For `CN[C@H](CN[C@H](CN)Cc1ccc(O)cc1)Cc1ccc(O)cc1`, the IC50 came to 0.111 µM on Mu-type opioid receptor [1], 10.9 µM in experiment [2] and 9.67 µM in experiment [3].

Consider `CNC[C@H](Cc1ccccc1)N(C)C[C@@H](Cc1ccc(O)cc1)N(C)C[C@@H](Cc1ccc(O)cc1)N(C)C`, for which the IC50 at Mu-type opioid receptor [1] is 1.5 µM; in experiment [2] it was 17.8 µM; in experiment [3] it was 6.06 µM. Moreover, in experiment [4], the Activity result was “Antagonist”.

`CNC[C@H](Cc1ccccc1)N(C)C[C@H](Cc1ccc(O)cc1)N(C)C[C@H](Cc1ccc(O)cc1)N(C)C`: the IC50 at Mu-type opioid receptor [1] stood at 0.0005 µM; in experiment [2], 4.89 µM; in experiment [3] it was 1.05 µM. Also, the Activity entry in experiment [4] was “Antagonist”.

For the compound `CNC[C@H](Cc1ccccc1)N(C)C[C@H](Cc1ccc(O)cc1)N(C)C[C@@H](Cc1ccc(O)cc1)N(C)C`, the half-maximal inhibitory concentration (IC50) at Mu-type opioid receptor [1] turned out to be 0.662 µM; in experiment [2], 9.05 µM; in experiment [3] it was 10.5 µM. For the same compound, the Activity entry in experiment [4] was “Antagonist”.

Take `CN(C)[C@H](CN[C@H](CN)Cc1ccc(O)cc1)Cc1ccc(O)cc1`: the values for the IC50 (on Mu-type opioid receptor [1]; in experiment [2]; in experiment [3]) were 0.262 µM, 17.9 µM and 22.6 µM, respectively.

Regarding `CNC[C@@H](Cc1ccccc1)N(C)C[C@H](Cc1ccc(O)cc1)N(C)C[C@@H](Cc1ccc(O)cc1)N(C)C`, the figures for the IC50 (on Mu-type opioid receptor [1]; in experiment [2]; in experiment [3]) were 0.958 µM, 11.3 µM and 15.6 µM, respectively. For the same compound, the Activity result in experiment [4] is “Antagonist”.

Take `CNC[C@H](Cc1ccc(O)cc1)N(Cc1ccccc1)C[C@@H](N)Cc1ccc(O)cc1`: the figures for the IC50 (on Mu-type opioid receptor [1]; in experiment [2]; in experiment [3]) were 0.882 µM, 35.6 µM and 14.4 µM, respectively.

In the case of `CN(C)[C@@H](Cc1ccc(O)cc1)CN(C)[C@H](CNCc1ccccc1)Cc1ccc(O)cc1`, the IC50 at Mu-type opioid receptor [1] worked out at 0.038 µM; in experiment [2] it was 8.26 µM; in experiment [3] it was 2.36 µM.

Consider `CNC[C@@H]1CCCN1C[C@H](Cc1ccccc1)N(C)C[C@H](Cc1ccc(O)cc1)N(C)C[C@H](Cc1ccc(O)cc1)NC`, for which, on Mu-type opioid receptor [5], the IC50 worked out at 0.002 µM.

Regarding `CN(C[C@@H](N)Cc1ccc(O)cc1)[C@H](CNCc1ccccc1)Cc1ccc(O)cc1`, the IC50 stood at 0.01 µM at Mu-type opioid receptor [1], 10.2 µM in experiment [2] and 4.14 µM in experiment [3].

In turn, `N[C@@H](Cc1ccc(O)cc1)CN(Cc1ccc2ccccc2c1)[C@@H](Cc1ccc(O)cc1)CN(Cc1ccc2ccccc2c1)[C@@H](Cc1ccccc1)CN1CCC[C@H]1CNCc1ccc2ccccc2c1` had a half-inhibitory concentration (IC50) against Mu-type opioid receptor [5] of 18.6 µM.

Values taken from ChEMBL document CHEMBL1145313, “Identification of potent and highly selective chiral tri-amine and tetra-amine mu opioid receptors ligands: an example of lead optimization using mixture-based libraries” (Bioorg Med Chem Lett, 2006).
